According to PMC6949113, “Preclinical evaluation of AT-527, a novel guanosine nucleotide prodrug with potent, pan-genotypic activity against hepatitis C virus” (PLoS ONE, 2020):
Like-named read-outs stand apart in the source and are kept apart here.

What was measured:
[1] = target: T1, HCV NS5B polymerase (RdRp) (Hepatitis C virus genotype 1b, UniProt Q9WMX2); assay: HCV NS5B polymerase (RdRp) assay; type: biochemical
T1 construct: HCV NS5B polymerase (RdRp) assay
Method: RdRp activity was determined by the incorporation of radiolabeled ribonucleotide into synthesized RNA. […] HCV796 (Southern Research, Frederick, MD) was used as positive control for the assay.

Huh-7 cells = assay: Intracellular metabolism in Huh-7 replicon cells; type: in vitro ADME, human
Method: Huh-7 replicon cells. […] At each time point, the media was removed and the cells were washed twice with cold PBS, collected in 1 mL cold 60% MeOH, and extracted overnight at -20°C with internal standard added. […] Untreated cells were collected at each time point as a negative control.
S3 Protocol. LC-MS/MS analysis of AT-511 and metabolites in cultured cells. The supernatant extracts of each hepatocyte and Huh-7 cell incubation were separately analyzed by four different LC-MS/MS methods for quantitation of phosphoramidates, nucleosides, monophosphates, and triphosphates (methods 1, 2, 3 and 4, respectively), using synthetic reference standards of actually and potentially present compounds and using structurally related analogs as internal standards. Briefly, a Luna PFP (2), 5 µm, 100 x 4.6 mm column and an AB Sciex API-6500 mass spectrometer (ESI positive ion, MRM mode) were used for methods 1-3 and an XBridge Oligonucleotide, BEH C18, 2.5 µm, 50 x 2.1 mm column and a Thermo QE Plus mass spectrometer (electrospray, negative ion mode) were used for method 4. For methods 1 and 2, mobile phases A (10 mM ammonium acetate in water) and B (acetonitrile:methanol, 1:1, v/v) were used to elute samples (5 µL) at 1 mL/min with 15% B for 1.5 min followed by a linear gradient to 75% B over 1 min (method 1) or with 54% B for 1.3 min followed by a linear gradient to 90% B over 1.2 min. […]

Monkey PK study, plasma = type: in vivo, cynomolgus monkey; conditions: for plasma concentration, individual monkeys: AT-527 30 mg/kg oral, monkeys 1-3, BQL: <0.0017 AT-511, <0.0032 AT-273; for plasma concentration: male cynomolgus monkeys; for Cmax / MRT last / Tmax / AUC(0-t): male, cynomolgus, cynomolgus monkey; for AUC(0-t): read-out: AUC0-last
Excerpt: Monkey PK study. Male non-naïve cynomolgus monkeys were obtained from Hainan Jingang Laboratory Animal Co., Ltd. (Hainan, China), group housed during the 5-day acclimation period or individually housed during the study in stainless steel mesh cages, provided ad libitum access to RO water, fed twice daily (~120 g Certified Monkey Diet daily; Beijing Vital Keao Feed Co., Ltd., Beijing, China) and given daily treats of fresh fruit. Additional environmental enrichment included classical music and cartoons. Three groups of 5 monkeys each were administered 30, 100 or 300 mg/kg AT-527 as a powder filled in empty porcine hard gelatin capsules (size 0). The monkeys were fasted overnight prior to dosing and fed 4 h after dosing. Three dosages were selected to provide assessments of dose proportionality, the top two representing potential doses for a repeated oral dose toxicity study in monkeys, and the lowest predicted to be more therapeutically relevant. A pill gun was used to place the capsule beyond the root of the animals’ tongues and their mouths were held loosely closed for approximately 30 sec to allow them to move the jaw and swallow the capsule. Immediately following capsule administration, 20 mL of water was given by mouth and then the mouth was opened to ensure the capsule was swallowed. Blood samples (~0.6 mL) were collected up to 72 h from three animals per dose group, and up to 4 h from the remaining two animals in each group, at the same time points described for rats. […] Blood samples were collected with a syringe from a peripheral blood vessel from restrained, non-sedated animals, immediately transferred to pre-chilled tubes containing ~1 mg K2EDTA•2H20 and 20 μL of 5 mM dichlorvos solution, mixed and placed on ice until plasma was prepared by centrifugation as described for rats. Immediately after centrifugation, plasma samples were extracted with 4 volumes ISS2, and the supernatants were clarified by centrifugation (12,000 rpm, 10 min, 4°C) and stored at ≤ -60°C until analyzed by LC-MS/MS as described below. After the 4-hr blood collection, two monkeys per dose group were anesthetized with intravenous injection of pentobarbital sodium (60 mg/kg) and then euthanized as described for rats. […] All analytes were quantitated by LC-MS/MS as described below.
LC-MS/MS analysis of rat and monkey plasma and tissue homogenate supernatants. For the analysis of AT-511 in rat plasma, aliquots were extracted with 10 volumes ISS2. The supernatants were clarified by centrifugation (4000 rpm for 10 min at 4°C) and 3 μL samples were injected onto an Acuity BEH C18 1.7 μm, 2.1 × 50 mm column and a Sciex API 4000 mass spectrometer (ESI positive ion, MRM mode). Mobile phases A (0.025% formic acid (FA) and 1 mM ammonium acetate (AA) in 5% ACN in water) and B (0.025% FA and 1 mM AA in 95% ACN in water) were used to elute samples (3 μL) at 0.6 mL/min with 10% B for 0.3 min followed by linear gradients to 60% B over 0.6 min and to 90% B over 0.2 min, and ending with 90% B for 0.4 min.
PK data analysis. […] The linear/log trapezoidal rule was applied in obtaining the PK parameters.

T1 sequence (Q9WMX2 2420-3010): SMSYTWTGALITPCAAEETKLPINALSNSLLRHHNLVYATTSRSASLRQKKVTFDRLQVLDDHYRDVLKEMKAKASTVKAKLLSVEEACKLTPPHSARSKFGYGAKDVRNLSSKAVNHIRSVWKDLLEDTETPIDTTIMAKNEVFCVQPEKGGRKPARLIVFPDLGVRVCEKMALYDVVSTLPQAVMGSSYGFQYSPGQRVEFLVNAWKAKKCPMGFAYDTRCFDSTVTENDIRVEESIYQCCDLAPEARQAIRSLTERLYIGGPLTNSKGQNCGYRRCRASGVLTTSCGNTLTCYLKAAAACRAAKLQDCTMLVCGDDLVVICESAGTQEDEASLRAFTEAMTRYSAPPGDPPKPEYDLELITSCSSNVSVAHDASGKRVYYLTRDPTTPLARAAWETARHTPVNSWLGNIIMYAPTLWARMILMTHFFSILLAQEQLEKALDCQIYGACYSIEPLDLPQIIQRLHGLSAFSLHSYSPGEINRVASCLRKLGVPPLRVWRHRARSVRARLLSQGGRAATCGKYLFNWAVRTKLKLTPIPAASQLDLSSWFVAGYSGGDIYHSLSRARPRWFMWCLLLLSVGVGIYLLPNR

For `C[C@@]1(F)[C@H](O)[C@@H](COP(=O)(O)OP(=O)(O)OP(=O)(O)O)O[C@H]1n1cnc2c(=O)[nH]c(N)nc21` [AT-9010], the IC50 ([1]; as a competitive inhibitor of ATP, single assay) was 40.3 µM, the IC50 ([1]; as an alternate substrate for GTP, mean of two assays) was 0.15 µM and the “AUC0-24, intracellular” value (Huh-7 cells; 10 μM AT-511) was 5051 pmol*h/10^6 cells. For the same compound, the “Cmax, intracellular” value (Huh-7 cells; 10 μM AT-511, 0-24 h) was 420.3 ± 161.4 pmol/10^6 cells.
In the case of `C[C@@]1(F)[C@H](O)[C@@H](CO)O[C@H]1n1cnc2c(=O)[nH]c(N)nc21` [AT-273], the “plasma concentration, individual monkeys” value (Monkey PK study, plasma; 0.500 h) is reported as “BQL”, the “plasma concentration, individual monkeys” value (Monkey PK study, plasma; 1.00 h) is reported as “BQL” and the plasma concentration (Monkey PK study, plasma; single oral AT-527 100 mg/kg, 0.500 h, monkey 1) is reported as “BQL”. The plasma concentration (Monkey PK study, plasma; single oral AT-527 100 mg/kg, 0.500 h, monkey 2) was “BQL”, the plasma concentration (Monkey PK study, plasma; single oral AT-527 300 mg/kg, 0.500 h, monkey 1) was “BQL” and the plasma concentration (Monkey PK study, plasma; single oral AT-527 300 mg/kg, 0.500 h, monkey 2) was “BQL”. The plasma concentration (Monkey PK study, plasma; single oral AT-527 300 mg/kg, 0.500 h, monkey 3) was “BQL”, the plasma concentration (Monkey PK study, plasma; single oral AT-527 300 mg/kg, 1.00 h, monkey 1) was “BQL” and the plasma concentration (Monkey PK study, plasma; single oral AT-527 300 mg/kg, 1.00 h, monkey 2) was “BQL”. For the same compound, the plasma concentration (Monkey PK study, plasma; single oral AT-527 300 mg/kg, 1.00 h, monkey 3) was “BQL”, the plasma concentration (Monkey PK study, plasma; single oral AT-527 300 mg/kg, 72.0 h, monkey 3) was “BQL” and the Cmax (Monkey PK study, plasma; in vivo, po, 30 mg/kg) was 140 ± 10 nM. It also gave an MRT last (Monkey PK study, plasma; in vivo, po, 30 mg/kg) of 26.9 ± 1.9 h, a Tmax (Monkey PK study, plasma; in vivo, po, 30 mg/kg) of 16 ± 6.9 h and an MRT last (Monkey PK study, plasma; in vivo, po, 100 mg/kg) of 23.7 ± 3.8 h. It also gave an MRT last (Monkey PK study, plasma; in vivo, po, 300 mg/kg) of 27.9 ± 8.1 h, a Tmax (Monkey PK study, plasma; in vivo, po, 300 mg/kg) of 17.3 ± 11.5 h and an AUC(0-t) (Monkey PK study, plasma; monkey plasma, single oral AT-527 30 mg/kg) of 5.42 ± 1.03 µM·h. It also gave an AUC(0-t) (Monkey PK study, plasma; monkey plasma, single oral AT-527 100 mg/kg) of 10.1 ± 2.6 µM·h, a Cmax (Monkey PK study, plasma; monkey plasma, single oral AT-527 100 mg/kg, read-out: Cmax) of 440 ± 170 nM and an AUC(0-t) (Monkey PK study, plasma; monkey plasma, single oral AT-527 300 mg/kg) of 12.2 ± 6.1 µM·h. For the same compound, the Cmax (Monkey PK study, plasma; monkey plasma, single oral AT-527 300 mg/kg, read-out: Cmax) was 310 ± 50 nM.
